Where a name gives a salt, the structure may show the parent alone.
What follows are compounds tested on MV-4-11 cells (assay: AML cell viability assay (RealTime-Glo)). Settings: Homo sapiens, MV4-11, 44 h, read-out: Cell viability classification.
Type: cell-based
`CCCCCN(CCCCNC(=O)CC(C)C)c1cccc2c1CN(C1CCC(=O)NC1=O)C2=O` (centres unmarked) [Compound 149, N-(4-((2-(2,6-dioxopiperidin-3-yl)-1-oxoisoindolin-4-yl)(pentyl)amino)butyl)-3-methylbutanamide] was tested, and the IC50 was over 1 µM. In the case of `CCCCCN(CCCCNC(=O)CCC)c1cccc2c1CN(C1CCC(=O)NC1=O)C2=O` (centres unmarked) [Compound 148, N-(4-((2-(2,6-dioxopiperidin-3-yl)-1-oxoisoindolin-4-yl)(pentyl)amino)butyl)butyramide], the IC50 is reported as 0.1 to 1 µM.

Same assay, conditions: Homo sapiens, MV4-11; IC50 class; MV-4-11 cells, RealTime-Glo after 44 hrs of treatment (TABLE 1); read-out: Cell viability classification
`N[C@H]1CC[C@@H](N(CCC2CC2)c2cccc3c2CN(C2CCC(=O)NC2=O)C3=O)C1` (stereo partly drawn) [Compound 352, 3-(4-(((1R,3S)-3-aminocyclopentyl)(2-cyclopropylethyl)amino)-1-oxoisoindolin-2-yl)piperidine-2,6-dione] was tested, and the IC50 was under 0.1 µM. In the case of `N[C@H]1CC[C@H](N(Cc2ccccc2)c2cccc3c2CN(C2CCC(=O)NC2=O)C3=O)CC1` (some centres unmarked) [Compound 349, 3-(4-(((1r,4r)-4-aminocyclohexyl)(benzyl)amino)-1-oxoisoindolin-2-yl)piperidine-2,6-dione], the IC50 is reported as over 1 µM. In the case of `CC(C)(C)CCN(c1cccc2c1CN(C1CCC(=O)NC1=O)C2=O)[C@H]1CC[C@@H](CN)CC1` (some centres unmarked) [Compound 332, 3-(4-(((1s,4s)-4-(aminomethyl)cyclohexyl)(3,3-dimethylbutyl)amino)-1-oxoisoindolin-2-yl)piperidine-2,6-dione], the IC50 is reported as under 0.1 µM. `N[C@H]1CC[C@H](N(CCc2ccccc2)c2cccc3c2CN(C2CCC(=O)NC2=O)C3=O)CC1` (some centres unmarked) [Compound 247, 3-(4-(((1r,4r)-4-aminocyclohexyl)(phenethyl)amino)-1-oxoisoindolin-2-yl)piperidine-2,6-dione, HCl] was tested, and the IC50 was 0.1 to 1 µM. `C[C@H]1CC[C@@H](N(c2cccc3c2CN(C2CCC(=O)NC2=O)C3=O)[C@H]2CC[C@@H](CN)CC2)CC1` (stereo partly drawn) [Compound 334, 3-(4-(((1s,4S)-4-(aminomethyl)cyclohexyl)((1s,4S)-4-methylcyclohexyl)amino)-1-oxoisoindolin-2-yl)piperidine-2,6-dione] showed an IC50 of over 1 µM. For `N[C@H]1CC[C@H](N(CCCC2CCCCO2)c2cccc3c2CN(C2CCC(=O)NC2=O)C3=O)CC1` (some centres unmarked) [Compound 341, 3-(4-(((1r,4r)-4-aminocyclohexyl)(3-(tetrahydro-2H-pyran-2-yl)propyl)amino)-1-oxoisoindolin-2-yl)piperidine-2,6-dione, HCl], the IC50 was 0.1 to 1 µM. For `O=C1CCC(N2Cc3c(cccc3N(CCCC3CCOCC3)[C@@H]3CC[C@H](NCC4CC4)C3)C2=O)C(=O)N1` (stereo partly drawn) [Compound 356, 3-(4-(((1R,3S)-3-((cyclopropylmethyl)amino)cyclopenty 1)(3-(tetrahydro-2H-pyran-4-yl)propyl)amino)-1-oxoisoindolin-2-yl)piperidine-2,6-dione], the IC50 was under 0.1 µM. With `CCCN(CCN)c1cccc2c1CN(C1CCC(=O)NC1=O)C2=O` (centres unmarked) [Compound 49, 3-(4-((2-aminoethyl)(propyl)amino)-1-oxoisoindolin-2-yl)piperidine-2,6-dione] the IC50 was over 1 µM.

Same assay, conditions: Homo sapiens, MV4-11; IC50 class; MV-4-11 cells, RealTime-Glo after 44 hrs of treatment (TABLE 2); read-out: Cell viability classification
With `CCCCCN(C[C@H]1CC[C@@H](N)CC1)c1cccc2c1CN(C1CCC(=O)NC1=O)C2=O` (some centres unmarked) [Compound 91, 3-(4-((((1s,4s)-4-aminocyclohexyl)methyl)(pentyl)amino)-1-oxoisoindolin-2-yl)piperidine-2,6-dione, HCl] the IC50 was under 0.1 µM. In the case of `CCCCCN(C[C@H]1CC[C@H](N)CC1)c1cccc2c1CN(C1CCC(=O)NC1=O)C2=O` (some centres unmarked) [Compound 92, 3-(4-((((1r,4r)-4-aminocyclohexyl)methyl)(pentyl)amino)-1-oxoisoindolin-2-yl)piperidine-2,6-dione, HCl], the IC50 is reported as under 0.1 µM. `CCCCCN(CCCCNC(=O)CC(C)(C)C)c1cccc2c1CN(C1CCC(=O)NC1=O)C2=O` (centres unmarked) [Compound 150, N-(4-((2-(2,6-dioxopiperidin-3-yl)-1-oxoisoindolin-4-yl)(pentyl)amino)butyl)-3,3-dimethylbutanamide] gave an IC50 of over 1 µM.

Same assay, conditions: Homo sapiens, MV4-11; IC50 class; MV-4-11 cells, RealTime-Glo after 44 hrs of treatment (TABLE 3); read-out: Cell viability classification
Work on `C[C@H]1CC[C@@H](N(c2cccc3c2CN(C2CCC(=O)NC2=O)C3=O)[C@H]2CC[C@H](N)CC2)CC1` (stereo partly drawn) [Compound 331, 3-(4-(((1r,4R)-4-aminocyclohexyl)((1s,4S)-4-methylcyclohexyl)amino)-1-oxoisoindolin-2-yl)piperidine-2,6-dione] yielded an IC50 of over 1 µM.

Same assay, conditions: Homo sapiens, MV4-11; IC50 class; MV-4-11 cells, RealTime-Glo after 44 hrs of treatment (TABLE 4); read-out: Cell viability classification
Compound `O=C1CCC(N2Cc3c(cccc3N(CCC3CC3)[C@H]3CC[C@@H](c4nnc[nH]4)CC3)C2=O)C(=O)N1` (some centres unmarked) [Compound 573, 3-{4-[(2-cyclopropylethyl)[(1s,4s)-4-(4H-1,2,4-triazol-3-yl)cyclohexyl]amino]-1-oxo-3H-isoindol-2-yl}piperidine-2,6-dione; formate] has an IC50 of under 0.1 µM. `O=C1CCC(N2Cc3c(cccc3N(CCC3CC3)[C@H]3CC[C@@H](NCC4(F)CC4)CC3)C2=O)C(=O)N1` (some centres unmarked) [Compound 612A, 3-{4-[(2-cyclopropylethyl)[(1s,4s)-4-{[(1-fluorocyclopropyl)methyl]amino}cyclohexyl]amino]-1-oxo-3H-isoindol-2-yl}piperidine-2,6-dione] showed an IC50 of 0.1 to 1 µM. For `O=C1CCC(N2Cc3c(cccc3N(CCC3(C(F)(F)F)CC3)[C@H]3CC[C@H](NC4CC(F)(F)C4)CC3)C2=O)C(=O)N1` (some centres unmarked) [Compound 554, 3-(4-(((1r,4r)-4-((3,3-difluorocyclobutyl)amino)cyclohexyl)(2-(1-(trifluoromethyl)cyclopropyl)ethyl)amino)-1-oxoisoindolin-2-yl)piperidine-2,6-dione formate], the IC50 was 0.1 to 1 µM. Compound `O=C1CCC(N2Cc3c(cccc3N(CCC3CC3)[C@H]3CC[C@H](NCC4(C(F)(F)F)CC4)CC3)C2=O)C(=O)N1` (some centres unmarked) [Compound 582, 3-{4-[(2-cyclopropylethyl)[(1r,4r)-4-({[1-(trifluoromethyl)cyclopropyl]methyl}amino)cyclohexyl]amino]-1-oxo-3H-isoindol-2-yl}piperidine-2,6-dione] has an IC50 of under 0.1 µM. For `O=C1CCC(N2Cc3c(cccc3N(CC3CC4(CCC4)C3)[C@H]3CC[C@H](NC4CC(F)(F)C4)CC3)C2=O)C(=O)N1` (some centres unmarked) [Compound 557, 3-(1-oxo-4-{[(1r,4r)-4-[(3,3-difluorocyclobutyl)amino]cyclohexyl]({spiro[3.3]heptan-2-ylmethyl})amino}-3H-isoindol-2-yl)piperidine-2,6-dione], the IC50 was 0.1 to 1 µM. `O=C1CCC(N2Cc3c(N(CCC4CC4)[C@H]4CC[C@H](NCC5(C(F)(F)F)CC5)CC4)ccc(F)c3C2=O)C(=O)N1` (some centres unmarked) [Compound 627, 3-{4-[(2-cyclopropylethyl)[(1r,4r)-4-({[1-(trifluoromethyl)cyclopropyl]methyl}amino)cyclohexyl]amino]-7-fluoro-1-oxo-3H-isoindol-2-yl}piperidine-2,6-dione] showed an IC50 of over 1 µM. Work on `O=C1CCC(N2Cc3c(cccc3N(CCCCC(F)(F)F)[C@H]3CC[C@@H](NCC4(C(F)(F)F)CC4)CC3)C2=O)C(=O)N1` (some centres unmarked) [Compound 628A, 3-(1-oxo-4-{[(1s,4s)-4-({[1-(trifluoromethyl)cyclopropyl]methyl}amino)cyclohexyl](5,5,5-trifluoropentyl)amino}-3H-isoindol-2-yl)piperidine-2,6-dione; trifluoroacetate] yielded an IC50 of over 1 µM.

Same assay, conditions: Homo sapiens, MV4-11; IC50 class; MV-4-11 cells, RealTime-Glo after 44 hrs of treatment (TABLE 5); read-out: Cell viability classification
`O=C1CCC(N2Cc3c(cccc3N(CC3CCC3)[C@H]3CC[C@H](NCC4(C(F)(F)F)CC4)CC3)C2=O)C(=O)N1` (some centres unmarked) [Compound 654, 3-(4-((cyclobutylmethyl)((1r,4r)-4-(((1-(trifluoromethyl)cyclopropyl)methyl)amino)cyclohexyl)amino)-1-oxoisoindolin-2-yl)piperidine-2,6-dione] was tested, and the IC50 was 0.1 to 1 µM. Work on `O=C1CCC(N2Cc3c(cccc3N(CCC3CC3)[C@H]3CC[C@H](N4CCC5(C4)CC5(F)F)CC3)C2=O)C(=O)N1` (some centres unmarked) [Compound 711, 3-(4-((2-cyclopropylethyl)((1r,4r)-4-(1,1-difluoro-5-azaspiro[2.4]heptan-5-yl)cyclohexyl)amino)-1-oxoisoindolin-2-yl)piperidine-2,6-dione 2,2,2-trifluoroacetate] yielded an IC50 of 0.1 to 1 µM. `O=C1CCC(N2Cc3c(cccc3N(CCC3CC3)[C@H]3CC[C@H](N4CC[C@H](C(F)(F)F)C4)CC3)C2=O)C(=O)N1` (stereo partly drawn) [Compound 712, 3-(4-((2-cyclopropylethyl)((1S,4r)-4-((S)-3-(trifluoromethyl)pyrrolidin-1-yl)cyclohexyl)amino)-1-oxoisoindolin-2-yl)piperidine-2,6-dione 2,2,2-trifluoroacetate] showed an IC50 of 0.1 to 1 µM. For `O=C1CCC(N2Cc3c(cccc3N(CCC3CC3)[C@H]3CC[C@H](CNCCC(F)(F)F)CC3)C2=O)C(=O)N1` (some centres unmarked) [Compound 708, 3-(4-((2-cyclopropylethyl)((1r,4r)-4-(((3,3,3-trifluoropropyl)amino)methyl)cyclohexyl)amino)-1-oxoisoindolin-2-yl)piperidine-2,6-dione], the IC50 was 0.1 to 1 µM. In the case of `CN1CCC(CN(CCC2CC2)c2cccc3c2CN(C2CCC(=O)NC2=O)C3=O)CC1` (centres unmarked) [Compound 714, 3-(4-((2-cyclopropylethyl)((1-methylpiperidin-4-yl)methyl)amino)-1-oxoisoindolin-2-yl)piperidine-2,6-dione], the IC50 is reported as over 1 µM. For `O=C1CCC(N2Cc3c(cccc3N(CCC3CC3)[C@H]3CC[C@@H](N4CCC5(C4)CC5(F)F)CC3)C2=O)C(=O)N1` (some centres unmarked) [Compound 711A, 3-(4-((2-cyclopropylethyl)((1s,4s)-4-(1,1-difluoro-5-azaspiro[2.4]heptan-5-yl)cyclohexyl)amino)-1-oxoisoindolin-2-yl)piperidine-2,6-dione 2,2,2-trifluoroacetate], the IC50 was over 1 µM. `O=C1CCC(N2Cc3c(cccc3N(CCC3CC3)[C@H]3CC[C@H](NCC(F)(F)C(F)(F)F)CC3)C2=O)C(=O)N1` (some centres unmarked) [Compound 644] showed an IC50 of over 1 µM. `O=C1CCC(N2Cc3c(cccc3N(CCC3CC3)[C@H]3CC[C@H](NCCCC(F)(F)F)CC3)C2=O)C(=O)N1` (some centres unmarked) [Compound 642] was tested, and the IC50 was under 0.1 µM.

— US20250188069A1, “COMPOUNDS AND METHODS FOR DEGRADING CASEIN KINASE 1 ALPHA” (PIN THERAPEUTICS, INC., priority 2022, published 2025)
